Results published in ChEMBL document CHEMBL1909046, “DrugMatrix in vitro pharmacology data”.

Target: T1, Alpha-1A adrenergic receptor (Rattus norvegicus, UniProt P43140)
T1 sequence (P43140 whole entry): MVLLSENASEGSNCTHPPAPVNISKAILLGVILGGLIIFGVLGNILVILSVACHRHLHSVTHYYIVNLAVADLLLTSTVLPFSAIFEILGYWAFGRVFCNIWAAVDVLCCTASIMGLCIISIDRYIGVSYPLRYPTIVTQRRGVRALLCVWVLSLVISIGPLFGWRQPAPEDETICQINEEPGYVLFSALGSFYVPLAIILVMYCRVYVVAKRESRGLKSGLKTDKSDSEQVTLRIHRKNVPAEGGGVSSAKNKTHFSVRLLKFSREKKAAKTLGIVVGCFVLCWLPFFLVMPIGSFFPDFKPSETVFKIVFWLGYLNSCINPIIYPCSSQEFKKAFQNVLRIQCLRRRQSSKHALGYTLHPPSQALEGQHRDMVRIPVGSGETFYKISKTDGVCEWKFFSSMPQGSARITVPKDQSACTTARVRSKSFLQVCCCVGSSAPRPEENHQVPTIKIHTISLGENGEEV
Experiment: DRUGMATRIX: Alpha-1A adrenergic receptor radioligand binding (ligand: prazosin)
Type: cell membranes, Wistar, Submaxillary gland, Membrane
Conditions: Not Active = under 50% inhibition at 10 µM

| SMILES | IC50 |
| --- | --- |
| CN(C)[C@@H]1C(O)=C(C(N)=O)C(=O)[C@@]2(O)C(O)=C3C(=O)c4c(O)cccc4[C@@](C)(O)[C@H]3[C@H](O)[C@@H]12 [OXYTETRACYCLINE] | Not Active |
| COc1c(N2CCNC(C)C2)c(F)cc2c(=O)c(C(=O)O)cn(C3CC3)c12 (configuration not stated) [GATIFLOXACIN] | Not Active |
| CC(=O)CCCCn1c(=O)c2c(ncn2C)n(C)c1=O [PENTOXIFYLLINE] | Not Active |
| O=C1CN=C(c2ccccc2)c2cc([N+](=O)[O-])ccc2N1 [NITRAZEPAM] | Not Active |

Target: T2, B2 bradykinin receptor (Homo sapiens, UniProt P30411); further: in other assays of this panel Not Active means under 50% inhibition at 10 µM
T2 sequence (P30411 whole entry): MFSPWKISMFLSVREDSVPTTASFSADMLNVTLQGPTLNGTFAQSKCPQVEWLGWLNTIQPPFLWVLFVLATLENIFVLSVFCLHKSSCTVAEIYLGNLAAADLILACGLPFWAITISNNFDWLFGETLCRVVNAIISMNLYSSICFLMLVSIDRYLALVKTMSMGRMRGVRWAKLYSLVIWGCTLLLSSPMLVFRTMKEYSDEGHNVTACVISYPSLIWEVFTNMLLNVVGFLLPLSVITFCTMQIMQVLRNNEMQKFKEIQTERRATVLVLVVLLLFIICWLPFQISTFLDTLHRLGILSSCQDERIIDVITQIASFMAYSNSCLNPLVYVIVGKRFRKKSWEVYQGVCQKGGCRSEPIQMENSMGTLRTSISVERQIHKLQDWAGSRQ
Type: cell membranes, Membrane
Conditions: chem-1

| SMILES | IC50 |
| --- | --- |
| CN(C)[C@@H]1C(O)=C(C(N)=O)C(=O)[C@@]2(O)C(O)=C3C(=O)c4c(O)cccc4[C@@](C)(O)[C@H]3[C@H](O)[C@@H]12 [OXYTETRACYCLINE] | Not Active |
| COc1c(N2CCNC(C)C2)c(F)cc2c(=O)c(C(=O)O)cn(C3CC3)c12 (configuration not stated) [GATIFLOXACIN] | Not Active |
| CC(=O)CCCCn1c(=O)c2c(ncn2C)n(C)c1=O [PENTOXIFYLLINE] | Not Active |
| O=C1CN=C(c2ccccc2)c2cc([N+](=O)[O-])ccc2N1 [NITRAZEPAM] | Not Active |

Tested on: not listed separately
Experiment: DRUGMATRIX: Serotonin (5-Hydroxytryptamine) 5-HT3 radioligand binding (ligand: [3H] GR-65630)
Type: cell membranes, Membrane
Conditions: hek293; Not Active = under 50% inhibition at 10 µM

| SMILES | IC50 | Ki |
| --- | --- | --- |
| CN(C)[C@@H]1C(O)=C(C(N)=O)C(=O)[C@@]2(O)C(O)=C3C(=O)c4c(O)cccc4[C@@](C)(O)[C@H]3[C@H](O)[C@@H]12 [OXYTETRACYCLINE] | Not Active | Not Active |
| COc1c(N2CCNC(C)C2)c(F)cc2c(=O)c(C(=O)O)cn(C3CC3)c12 (configuration not stated) [GATIFLOXACIN] | Not Active | Not Active |
| CC(=O)CCCCn1c(=O)c2c(ncn2C)n(C)c1=O [PENTOXIFYLLINE] | Not Active | Not Active |
| O=C1CN=C(c2ccccc2)c2cc([N+](=O)[O-])ccc2N1 [NITRAZEPAM] | Not Active | Not Active |

Target: Sigma non-opioid intracellular receptor 1 (Homo sapiens, UniProt Q99720)
Sequence (Q99720 whole entry): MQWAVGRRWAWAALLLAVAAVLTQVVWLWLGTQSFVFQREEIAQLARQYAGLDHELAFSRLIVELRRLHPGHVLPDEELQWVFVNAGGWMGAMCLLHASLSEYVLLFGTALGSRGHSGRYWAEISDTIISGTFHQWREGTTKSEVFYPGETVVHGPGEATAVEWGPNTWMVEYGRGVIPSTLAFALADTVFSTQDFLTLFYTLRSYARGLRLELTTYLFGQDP
Experiment: DRUGMATRIX: Sigma1 radioligand binding (ligand: [3H] Haloperidol)
Type: cell membranes, Jurkat, Membrane
Conditions: jurkat; Not Active = under 50% inhibition at 10 µM

| SMILES | IC50 |
| --- | --- |
| CN(C)[C@@H]1C(O)=C(C(N)=O)C(=O)[C@@]2(O)C(O)=C3C(=O)c4c(O)cccc4[C@@](C)(O)[C@H]3[C@H](O)[C@@H]12 [OXYTETRACYCLINE] | Not Active |
| COc1c(N2CCNC(C)C2)c(F)cc2c(=O)c(C(=O)O)cn(C3CC3)c12 (configuration not stated) [GATIFLOXACIN] | Not Active |
| CC(=O)CCCCn1c(=O)c2c(ncn2C)n(C)c1=O [PENTOXIFYLLINE] | Not Active |
| O=C1CN=C(c2ccccc2)c2cc([N+](=O)[O-])ccc2N1 [NITRAZEPAM] | Not Active |

Target: Vascular endothelial growth factor receptor 1 (Homo sapiens, UniProt P17948); further: in other assays of this panel Not Active means under 50% inhibition at 10 µM
Sequence (P17948 whole entry): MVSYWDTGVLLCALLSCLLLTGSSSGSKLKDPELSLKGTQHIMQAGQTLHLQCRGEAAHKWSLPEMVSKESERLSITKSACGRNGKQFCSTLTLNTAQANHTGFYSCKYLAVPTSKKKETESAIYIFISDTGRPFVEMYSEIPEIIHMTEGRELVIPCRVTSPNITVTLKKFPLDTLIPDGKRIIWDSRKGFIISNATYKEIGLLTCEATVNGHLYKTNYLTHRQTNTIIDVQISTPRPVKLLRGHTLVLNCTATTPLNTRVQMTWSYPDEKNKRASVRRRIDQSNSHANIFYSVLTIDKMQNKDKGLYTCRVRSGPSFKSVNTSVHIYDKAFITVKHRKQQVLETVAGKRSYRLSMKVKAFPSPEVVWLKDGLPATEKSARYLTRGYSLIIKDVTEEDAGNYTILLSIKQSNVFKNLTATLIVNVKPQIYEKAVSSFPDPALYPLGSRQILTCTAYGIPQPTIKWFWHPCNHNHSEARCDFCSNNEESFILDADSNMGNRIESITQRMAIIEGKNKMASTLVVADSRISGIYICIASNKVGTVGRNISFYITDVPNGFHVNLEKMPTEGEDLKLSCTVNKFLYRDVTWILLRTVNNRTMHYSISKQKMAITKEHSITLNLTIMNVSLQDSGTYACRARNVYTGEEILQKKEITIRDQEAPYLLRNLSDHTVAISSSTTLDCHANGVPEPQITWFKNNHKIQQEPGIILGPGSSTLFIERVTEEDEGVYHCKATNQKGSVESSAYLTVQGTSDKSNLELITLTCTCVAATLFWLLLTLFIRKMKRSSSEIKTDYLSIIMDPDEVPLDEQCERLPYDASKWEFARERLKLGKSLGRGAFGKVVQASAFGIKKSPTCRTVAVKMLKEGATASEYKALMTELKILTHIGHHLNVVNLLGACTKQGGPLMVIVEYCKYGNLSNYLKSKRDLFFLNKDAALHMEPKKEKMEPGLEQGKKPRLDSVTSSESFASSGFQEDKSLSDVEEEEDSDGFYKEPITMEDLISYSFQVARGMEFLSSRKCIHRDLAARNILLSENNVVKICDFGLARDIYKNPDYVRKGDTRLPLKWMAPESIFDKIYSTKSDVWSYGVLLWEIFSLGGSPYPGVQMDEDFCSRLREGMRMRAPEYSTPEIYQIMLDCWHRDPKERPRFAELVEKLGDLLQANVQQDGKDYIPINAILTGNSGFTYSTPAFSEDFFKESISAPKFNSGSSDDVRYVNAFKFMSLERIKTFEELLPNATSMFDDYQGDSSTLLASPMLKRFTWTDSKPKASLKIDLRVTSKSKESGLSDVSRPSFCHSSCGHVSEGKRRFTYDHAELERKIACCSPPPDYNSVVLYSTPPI
Type: cell-based
Conditions: huvec

| SMILES | IC50 |
| --- | --- |
| CN(C)[C@@H]1C(O)=C(C(N)=O)C(=O)[C@@]2(O)C(O)=C3C(=O)c4c(O)cccc4[C@@](C)(O)[C@H]3[C@H](O)[C@@H]12 [OXYTETRACYCLINE] | Not Active |
| COc1c(N2CCNC(C)C2)c(F)cc2c(=O)c(C(=O)O)cn(C3CC3)c12 (configuration not stated) [GATIFLOXACIN] | Not Active |
| CC(=O)CCCCn1c(=O)c2c(ncn2C)n(C)c1=O [PENTOXIFYLLINE] | Not Active |
| O=C1CN=C(c2ccccc2)c2cc([N+](=O)[O-])ccc2N1 [NITRAZEPAM] | Not Active |

Target: T3, Muscarinic acetylcholine receptor M4 (Homo sapiens, UniProt P08173); further: in other assays of this panel Not Active means under 50% inhibition at 10 µM
T3 sequence (P08173 whole entry): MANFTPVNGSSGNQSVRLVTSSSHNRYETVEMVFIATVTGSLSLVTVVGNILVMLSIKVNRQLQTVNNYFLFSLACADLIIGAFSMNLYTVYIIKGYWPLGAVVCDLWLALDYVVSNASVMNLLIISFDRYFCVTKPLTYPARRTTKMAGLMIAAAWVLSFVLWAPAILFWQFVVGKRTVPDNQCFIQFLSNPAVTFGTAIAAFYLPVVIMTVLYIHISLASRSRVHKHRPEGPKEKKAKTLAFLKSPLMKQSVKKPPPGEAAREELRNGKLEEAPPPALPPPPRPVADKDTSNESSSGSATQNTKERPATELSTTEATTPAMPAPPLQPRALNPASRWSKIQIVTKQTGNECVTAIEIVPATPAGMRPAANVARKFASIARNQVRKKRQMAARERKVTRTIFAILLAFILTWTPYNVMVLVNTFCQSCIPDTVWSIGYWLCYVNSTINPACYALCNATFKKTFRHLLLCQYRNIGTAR
Type: cell membranes, CHO-K1, Membrane
Conditions: cho-k1

| SMILES | IC50 |
| --- | --- |
| CN(C)[C@@H]1C(O)=C(C(N)=O)C(=O)[C@@]2(O)C(O)=C3C(=O)c4c(O)cccc4[C@@](C)(O)[C@H]3[C@H](O)[C@@H]12 [OXYTETRACYCLINE] | Not Active |
| COc1c(N2CCNC(C)C2)c(F)cc2c(=O)c(C(=O)O)cn(C3CC3)c12 (configuration not stated) [GATIFLOXACIN] | Not Active |
| CC(=O)CCCCn1c(=O)c2c(ncn2C)n(C)c1=O [PENTOXIFYLLINE] | Not Active |
| O=C1CN=C(c2ccccc2)c2cc([N+](=O)[O-])ccc2N1 [NITRAZEPAM] | Not Active |

Target: Nitric oxide synthase 1 (Rattus norvegicus, UniProt P29476); further: in other assays of this panel Not Active means under 50% inhibition at 10 µM
Sequence (P29476 whole entry): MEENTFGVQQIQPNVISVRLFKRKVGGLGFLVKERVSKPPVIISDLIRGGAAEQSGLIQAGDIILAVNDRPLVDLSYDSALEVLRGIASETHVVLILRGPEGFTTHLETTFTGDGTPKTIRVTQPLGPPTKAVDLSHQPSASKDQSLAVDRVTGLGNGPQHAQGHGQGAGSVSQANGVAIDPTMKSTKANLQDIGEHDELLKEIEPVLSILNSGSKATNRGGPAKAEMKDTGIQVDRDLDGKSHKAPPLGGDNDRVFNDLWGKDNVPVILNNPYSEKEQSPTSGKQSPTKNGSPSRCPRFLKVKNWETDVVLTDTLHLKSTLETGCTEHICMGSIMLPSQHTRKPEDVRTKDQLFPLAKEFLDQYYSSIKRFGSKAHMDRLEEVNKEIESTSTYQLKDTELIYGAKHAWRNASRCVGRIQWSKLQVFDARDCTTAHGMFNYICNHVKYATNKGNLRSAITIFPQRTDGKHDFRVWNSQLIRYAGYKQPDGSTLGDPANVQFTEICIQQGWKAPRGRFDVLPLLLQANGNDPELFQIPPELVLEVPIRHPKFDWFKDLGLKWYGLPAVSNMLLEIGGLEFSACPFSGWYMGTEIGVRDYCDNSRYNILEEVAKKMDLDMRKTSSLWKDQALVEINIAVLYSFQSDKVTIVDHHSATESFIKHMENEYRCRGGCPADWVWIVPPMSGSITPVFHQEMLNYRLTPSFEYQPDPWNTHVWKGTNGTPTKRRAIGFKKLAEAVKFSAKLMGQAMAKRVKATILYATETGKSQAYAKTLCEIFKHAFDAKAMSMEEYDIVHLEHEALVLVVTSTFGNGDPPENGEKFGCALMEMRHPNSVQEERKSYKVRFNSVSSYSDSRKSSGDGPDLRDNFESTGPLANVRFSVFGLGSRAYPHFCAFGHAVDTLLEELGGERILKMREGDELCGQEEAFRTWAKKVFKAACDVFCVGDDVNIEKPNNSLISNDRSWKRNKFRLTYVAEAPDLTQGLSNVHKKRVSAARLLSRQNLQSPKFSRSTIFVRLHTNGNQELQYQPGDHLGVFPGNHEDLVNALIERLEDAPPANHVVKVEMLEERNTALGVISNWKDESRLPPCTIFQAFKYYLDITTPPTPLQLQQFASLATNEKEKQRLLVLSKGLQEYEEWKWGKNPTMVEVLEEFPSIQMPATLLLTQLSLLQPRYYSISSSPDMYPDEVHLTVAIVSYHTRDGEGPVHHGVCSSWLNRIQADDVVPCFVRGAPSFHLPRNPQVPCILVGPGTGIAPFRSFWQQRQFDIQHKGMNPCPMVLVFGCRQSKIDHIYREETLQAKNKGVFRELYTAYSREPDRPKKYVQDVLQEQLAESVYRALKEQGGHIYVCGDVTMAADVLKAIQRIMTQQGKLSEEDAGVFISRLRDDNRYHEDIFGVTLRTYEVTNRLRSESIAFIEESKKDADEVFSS
Type: tissue-based, Cerebellum
Conditions: not given

| SMILES | IC50 |
| --- | --- |
| CN(C)[C@@H]1C(O)=C(C(N)=O)C(=O)[C@@]2(O)C(O)=C3C(=O)c4c(O)cccc4[C@@](C)(O)[C@H]3[C@H](O)[C@@H]12 [OXYTETRACYCLINE] | Not Active |
| COc1c(N2CCNC(C)C2)c(F)cc2c(=O)c(C(=O)O)cn(C3CC3)c12 (configuration not stated) [GATIFLOXACIN] | Not Active |
| CC(=O)CCCCn1c(=O)c2c(ncn2C)n(C)c1=O [PENTOXIFYLLINE] | Not Active |
| O=C1CN=C(c2ccccc2)c2cc([N+](=O)[O-])ccc2N1 [NITRAZEPAM] | Not Active |

Target: Delta-type opioid receptor (Homo sapiens, UniProt P41143); further: in other assays of this panel Not Active means under 50% inhibition at 10 µM
Sequence (P41143 whole entry): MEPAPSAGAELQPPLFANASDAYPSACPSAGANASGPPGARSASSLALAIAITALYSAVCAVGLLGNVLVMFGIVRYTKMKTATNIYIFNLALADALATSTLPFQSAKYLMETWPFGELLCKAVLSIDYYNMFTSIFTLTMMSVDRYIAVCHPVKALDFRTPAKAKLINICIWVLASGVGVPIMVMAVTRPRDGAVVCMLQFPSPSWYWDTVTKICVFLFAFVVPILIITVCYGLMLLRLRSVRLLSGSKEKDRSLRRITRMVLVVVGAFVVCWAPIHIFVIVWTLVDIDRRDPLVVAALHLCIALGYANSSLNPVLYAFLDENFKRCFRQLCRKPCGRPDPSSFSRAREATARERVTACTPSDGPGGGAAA
Type: cell membranes, HEK293, Membrane
Conditions: hek293

| SMILES | IC50 |
| --- | --- |
| CN(C)[C@@H]1C(O)=C(C(N)=O)C(=O)[C@@]2(O)C(O)=C3C(=O)c4c(O)cccc4[C@@](C)(O)[C@H]3[C@H](O)[C@@H]12 [OXYTETRACYCLINE] | Not Active |
| COc1c(N2CCNC(C)C2)c(F)cc2c(=O)c(C(=O)O)cn(C3CC3)c12 (configuration not stated) [GATIFLOXACIN] | Not Active |
| CC(=O)CCCCn1c(=O)c2c(ncn2C)n(C)c1=O [PENTOXIFYLLINE] | Not Active |
| O=C1CN=C(c2ccccc2)c2cc([N+](=O)[O-])ccc2N1 [NITRAZEPAM] | Not Active |

Target: T4, Progesterone receptor (Bos taurus, UniProt Q690N0)
T4 sequence (Q690N0 whole entry): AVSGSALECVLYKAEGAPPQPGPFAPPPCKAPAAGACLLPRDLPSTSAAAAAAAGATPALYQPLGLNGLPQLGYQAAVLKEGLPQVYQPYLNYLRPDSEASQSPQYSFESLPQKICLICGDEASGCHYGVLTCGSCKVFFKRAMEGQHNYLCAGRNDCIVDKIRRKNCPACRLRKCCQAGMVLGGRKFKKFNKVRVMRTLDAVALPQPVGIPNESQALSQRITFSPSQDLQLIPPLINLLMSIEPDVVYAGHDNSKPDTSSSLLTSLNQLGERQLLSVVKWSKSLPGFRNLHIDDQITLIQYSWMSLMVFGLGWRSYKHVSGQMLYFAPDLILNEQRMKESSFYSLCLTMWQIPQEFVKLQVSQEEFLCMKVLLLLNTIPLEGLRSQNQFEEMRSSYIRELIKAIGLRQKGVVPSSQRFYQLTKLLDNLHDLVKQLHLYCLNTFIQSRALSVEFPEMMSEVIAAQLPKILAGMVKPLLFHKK
Experiment: DRUGMATRIX: Progesterone radioligand binding (ligand: [3H] R-5020)
Type: tissue-based, Uterus
Conditions: Not Active = under 50% inhibition at 10 µM

| SMILES | IC50 |
| --- | --- |
| CN(C)[C@@H]1C(O)=C(C(N)=O)C(=O)[C@@]2(O)C(O)=C3C(=O)c4c(O)cccc4[C@@](C)(O)[C@H]3[C@H](O)[C@@H]12 [OXYTETRACYCLINE] | Not Active |
| COc1c(N2CCNC(C)C2)c(F)cc2c(=O)c(C(=O)O)cn(C3CC3)c12 (configuration not stated) [GATIFLOXACIN] | Not Active |
| CC(=O)CCCCn1c(=O)c2c(ncn2C)n(C)c1=O [PENTOXIFYLLINE] | Not Active |
| O=C1CN=C(c2ccccc2)c2cc([N+](=O)[O-])ccc2N1 [NITRAZEPAM] | Not Active |

Target: Matrix metalloproteinase-9 (Homo sapiens, UniProt P14780)
Type: cell-based
Conditions: not given

| SMILES | IC50 |
| --- | --- |
| CN(C)[C@@H]1C(O)=C(C(N)=O)C(=O)[C@@]2(O)C(O)=C3C(=O)c4c(O)cccc4[C@@](C)(O)[C@H]3[C@H](O)[C@@H]12 [OXYTETRACYCLINE] | Not Active |
| COc1c(N2CCNC(C)C2)c(F)cc2c(=O)c(C(=O)O)cn(C3CC3)c12 (configuration not stated) [GATIFLOXACIN] | Not Active |
| CC(=O)CCCCn1c(=O)c2c(ncn2C)n(C)c1=O [PENTOXIFYLLINE] | Not Active |
| O=C1CN=C(c2ccccc2)c2cc([N+](=O)[O-])ccc2N1 [NITRAZEPAM] | Not Active |

Target: Protein kinase C alpha type (Homo sapiens, UniProt P17252)
Type: cell-based
Conditions: sf9

| SMILES | IC50 |
| --- | --- |
| CN(C)[C@@H]1C(O)=C(C(N)=O)C(=O)[C@@]2(O)C(O)=C3C(=O)c4c(O)cccc4[C@@](C)(O)[C@H]3[C@H](O)[C@@H]12 [OXYTETRACYCLINE] | Not Active |
| COc1c(N2CCNC(C)C2)c(F)cc2c(=O)c(C(=O)O)cn(C3CC3)c12 (configuration not stated) [GATIFLOXACIN] | Not Active |
| CC(=O)CCCCn1c(=O)c2c(ncn2C)n(C)c1=O [PENTOXIFYLLINE] | Not Active |
| O=C1CN=C(c2ccccc2)c2cc([N+](=O)[O-])ccc2N1 [NITRAZEPAM] | Not Active |

Target: Mitogen-activated protein kinase 14 (Homo sapiens, UniProt Q16539)
Sequence (Q16539 whole entry): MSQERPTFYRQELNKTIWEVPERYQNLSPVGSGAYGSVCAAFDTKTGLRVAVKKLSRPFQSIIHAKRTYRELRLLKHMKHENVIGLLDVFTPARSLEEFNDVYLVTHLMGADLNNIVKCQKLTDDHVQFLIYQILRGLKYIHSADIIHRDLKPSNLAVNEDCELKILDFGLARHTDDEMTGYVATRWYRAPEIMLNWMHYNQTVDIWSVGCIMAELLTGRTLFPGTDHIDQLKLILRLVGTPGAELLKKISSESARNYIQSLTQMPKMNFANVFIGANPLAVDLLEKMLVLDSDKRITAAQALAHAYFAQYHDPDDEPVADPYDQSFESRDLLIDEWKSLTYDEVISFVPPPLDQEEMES
Design: species or system Escherichia coli
Conditions: not given

| SMILES | IC50 |
| --- | --- |
| CN(C)[C@@H]1C(O)=C(C(N)=O)C(=O)[C@@]2(O)C(O)=C3C(=O)c4c(O)cccc4[C@@](C)(O)[C@H]3[C@H](O)[C@@H]12 [OXYTETRACYCLINE] | Not Active |
| COc1c(N2CCNC(C)C2)c(F)cc2c(=O)c(C(=O)O)cn(C3CC3)c12 (configuration not stated) [GATIFLOXACIN] | Not Active |
| CC(=O)CCCCn1c(=O)c2c(ncn2C)n(C)c1=O [PENTOXIFYLLINE] | Not Active |
| O=C1CN=C(c2ccccc2)c2cc([N+](=O)[O-])ccc2N1 [NITRAZEPAM] | Not Active |
